Drawing on paper PMC12040169 (PLOS Biology, 2025), this text covers viability for 53 compounds.

The nature of the series: in vitro. The settings on record: human, hela cells, % viability.

Take `C=CCNC(=O)c1cc(Br)cnc1NCC1CC1` [CBK076424]: the viability at 28.5 h, 10 µM stood at 102%.
Regarding `COc1ccc(S(=O)(=O)NCCNC(=O)c2cc(-c3cccc(S(C)(=O)=O)c3)cnc2NCC2CC2)cc1` [CBK076425], the viability at 28.5 h, 10 µM came to 94.6%.
Then `CC(=O)NCCNC(=O)c1ccc(C)nc1N1CCOCC1` [CBK076453], with 98.6%; and `O=C(NC1CCS(=O)(=O)C1)c1cc(-c2cccnc2)cnc1NCc1ccc2c(c1)OCO2` (centres unmarked) [CBK076455], with 89.2%.
For `O=C(NNCc1ccccc1)c1cc(Br)cnc1N1CCN(C(=O)c2ccco2)CC1` [CBK076460], the viability at 28.5 h, 10 µM amounted to 101%.
Consider `COCCNC(=O)c1cc(-c2cccc(C(=O)N(C)C)c2)cnc1N1CCOCC1` [CBK076464], for which the viability at 28.5 h, 10 µM is 97.7%.
Then `COc1cccc(-c2ccc(C(=O)NCCNC(C)=O)c(N3CCOCC3)n2)c1` [CBK076465], with 86.3%; and `CN(C)CCN(C)C(=O)c1cc(Br)cnc1N(C)S(C)(=O)=O` [CBK076476], with 96.2%; and `CSc1ccccc1CNC(=O)c1cc(Br)cnc1N(C)C(C)=O` [CBK076478], with 106%.
For the compound `COCCNC(=O)c1cc(-c2ccccc2)cnc1N(C)S(C)(=O)=O` [CBK076484], the viability at 28.5 h, 10 µM worked out at 85.8%.
With `CS(=O)(=O)Nc1ncc(Br)cc1C(=O)Nc1ccc(C(F)(F)F)cc1` [CBK076485], the viability at 28.5 h, 10 µM turned out to be 96.7%.
Consider `CN(C)C(=O)c1cc(-c2ccco2)cnc1NS(C)(=O)=O` [CBK076490], for which the viability at 28.5 h, 10 µM is 116%.
As for `CCN1CCCC1CNC(=O)c1ccc(-c2ccc(OC)cc2)nc1N(C)C(C)=O` (centres unmarked) [CBK076491], the viability at 28.5 h, 10 µM was found to be 98.3%.
As to `O=C(NC1CCCCC1)c1cc(Br)cnc1NCCCn1ccnc1` [CBK076494], the viability at 28.5 h, 10 µM worked out at 99.7%.
As for `C=C(C)CNC(=O)c1cc(Br)cnc1N(C)S(C)(=O)=O` [CBK076498], the viability at 28.5 h, 10 µM worked out at 94.6%.
`COc1ccc(-c2ccc(C(=O)N(C)C)c(N(C)C(C)=O)n2)cc1` [CBK076500]: the viability at 28.5 h, 10 µM stood at 99.1%.
Consider `CN(C)c1ncc(Br)cc1C(=O)NCCNS(=O)(=O)c1ccccc1` [CBK076504], for which the viability at 28.5 h, 10 µM is 89.4%.
Consider `CN(c1ncc(-c2ccccc2)cc1C(=O)NCc1ccco1)S(C)(=O)=O` [CBK076506], for which the viability at 28.5 h, 10 µM is 86.3%.
Take `CN(c1ncc(-c2ccccc2)cc1C(=O)NCc1cccnc1)S(C)(=O)=O` [CBK076507]: the viability at 28.5 h, 10 µM came out at 98.9%.
As to `COc1cccc(-c2ccc(C(=O)Nc3ccc4c(c3)OCO4)c(N3CCOCC3)n2)c1` [CBK076509], the viability at 28.5 h, 10 µM was determined as 93.5%.
As to `CN(C)CCN(C)C(=O)c1cc(Br)cnc1N1CCN(C(=O)c2ccco2)CC1` [CBK076514], the viability at 28.5 h, 10 µM is 93.8%.
Then `CC(=O)c1ccccc1-c1cnc(N(C)S(C)(=O)=O)c(C(=O)NCCc2ccccc2)c1` [CBK076516], with 93.9%; and `Cc1ccc(C(=O)NCC2COc3ccccc3O2)c(N2CCOCC2)n1` (centres unmarked) [CBK076519], with 106%.
The result for `CCN1CCCC1CNC(=O)c1cc(Br)cnc1N(C)S(C)(=O)=O` (centres unmarked) [CBK076520] reads 93.5%; that for `CC(=O)N(C)c1ncc(Br)cc1C(=O)NCc1nc2ccccc2[nH]1` [CBK076522], 95.9%.
As for `COc1ccc(-c2cnc(NS(C)(=O)=O)c(C(=O)Nc3cc(C)nn3C)c2)cc1` [CBK076528], the viability at 28.5 h, 10 µM was 88.2%.
`CSc1ccccc1CNC(=O)c1cc(Br)cnc1N(C)S(C)(=O)=O` [CBK076529]: the viability at 28.5 h, 10 µM came to 96.7%.
Consider `CN(c1ncc(Br)cc1C(=O)NC1CCCCC1)S(C)(=O)=O` [CBK076531], for which the viability at 28.5 h, 10 µM came out at 111%.
As for `CN(c1ncc(Br)cc1C(=O)Nc1ccc(C(F)(F)F)cc1)S(C)(=O)=O` [CBK076542], the viability at 28.5 h, 10 µM came to 93.3%.
Take `CC(=O)N(C)c1ncc(Br)cc1C(=O)NCc1ccc2c(c1)CCO2` [CBK076544]: the viability at 28.5 h, 10 µM stood at 93.5%.
For the compound `COc1ccc(-c2ccc(C(=O)NCCN3CCOCC3)c(N(C)C(C)=O)n2)cc1` [CBK076545], the viability at 28.5 h, 10 µM came to 102%.
On to `CN1CCN(C(=O)c2ccc(-c3ccccc3)nc2NCCc2ccccn2)CC1` [CBK076550], for which the viability at 28.5 h, 10 µM was determined as 93.3%.
Take `O=C(NC1CCCCC1)c1ccc(-c2ccccc2)nc1NCCc1ccccn1` [CBK076553]: the viability at 28.5 h, 10 µM came out at 101%.
As for `O=C(NCC1COc2ccccc2O1)c1ccc(-c2ccccc2)nc1NCCc1ccccn1` (centres unmarked) [CBK076554], the viability at 28.5 h, 10 µM was found to be 95.9%.
Consider `CC(=O)N(C)c1nc(-c2cccc(N(C)C)c2)ccc1C(=O)N(C)C` [CBK076555], for which the viability at 28.5 h, 10 µM came to 92.3%.
Consider `O=C(Nc1ccc2c(c1)OCO2)c1ccc(-c2ccccc2)nc1NCCc1ccccn1` [CBK076574], for which the viability at 28.5 h, 10 µM was 102%.
Take `COc1ccc(OCCNC(=O)c2ccc(-c3ccc(C(C)=O)s3)nc2N(C)C(C)=O)cc1` [CBK076576]: the viability at 28.5 h, 10 µM is 95.5%.
For the compound `CC(=O)c1ccccc1-c1ccc(C(=O)NCCc2ccccn2)c(NCC2CC2)n1` [CBK076580], the viability at 28.5 h, 10 µM was determined as 98.8%.
`CN1CCN(C(=O)c2ccc(-c3cccc(C(=O)NCCO)c3)nc2N(C)C)CC1` [CBK076581]: the viability at 28.5 h, 10 µM is 91.8%.
`COc1ccc(OCCNC(=O)c2ccc(-c3cccc(N(C)C)c3)nc2N(C)C(C)=O)cc1` [CBK076587]: the viability at 28.5 h, 10 µM came out at 92.8%.
As for `COc1ccc2[nH]cc(CCNC(=O)c3ccc(-c4cccc(N(C)C)c4)nc3N(C)C(C)=O)c2c1` [CBK076589], the viability at 28.5 h, 10 µM was determined as 101%.
Consider `CN(C)CCN(C)C(=O)c1ccc(-c2cccc(C(=O)NCCO)c2)nc1N1CCOCC1` [CBK076592], for which the viability at 28.5 h, 10 µM turned out to be 92.5%.
Regarding `CC(=O)NCCNC(=O)c1ccc(-c2ccccc2)nc1NCCc1ccccn1` [CBK076595], the viability at 28.5 h, 10 µM amounted to 91.3%.
The result for `COc1ccc2[nH]cc(CCNC(=O)c3cc(-c4cccc(NC(C)=O)c4)cnc3N(C)S(C)(=O)=O)c2c1` [CBK076599] reads 101%; that for `CN(C)CCN(C)C(=O)c1ccc(-c2cccc(C(=O)NCCO)c2)nc1NCC1CC1` [CBK076603], 94%.
On to `CC(=O)c1ccc(-c2ccc(C(=O)NCC3COc4ccccc4O3)c(NCc3cccnc3)n2)s1` (centres unmarked) [CBK076608], for which the viability at 28.5 h, 10 µM was found to be 97.9%.
For `NS(=O)(=O)c1ccc(CCNC(=O)c2ccc(-c3ccccc3)nc2NCCc2ccccn2)cc1` [CBK076616], the viability at 28.5 h, 10 µM worked out at 111%.
For the compound `C=C(C)CNC(=O)c1cc(-c2cccc(NC(C)=O)c2)cnc1N(C)S(C)(=O)=O` [CBK076622], the viability at 28.5 h, 10 µM came to 93.9%.
For `CC(=O)N(C)c1nc(-c2cccc(N(C)C)c2)ccc1C(=O)Nc1ccc(C(F)(F)F)cc1` [CBK076623], the viability at 28.5 h, 10 µM came out at 98.5%.
Consider `CC(=O)N(C)c1nc(-c2cccc(N(C)C)c2)ccc1C(=O)NCc1cccnc1` [CBK076639], for which the viability at 28.5 h, 10 µM came to 101%.
Then `COc1ccc([C@@]23CC[C@@H](NC(=O)c4ccc(SC(F)(F)F)cc4)C[C@@H]2N(C)CC3)cc1OC` [CBK076654T], with 94.9%; and `COc1ccc([C@@]23CC[C@@H](NC(=O)c4ccc(Br)c(C)c4)C[C@@H]2N(C)CC3)cc1OC` [CBK076656T], with 81.2%.
The result for `COc1ccccc1-c1nnc(SC)n1-c1ccc(C)cc1` [CBK076670] reads 93.2%.

Broadly, the viability is a read-out of living cells in per cent, often relative to untreated cells.
